The target in experiment [1] is T1, AR (Rattus norvegicus, UniProt P15207).
T1 sequence (P15207 1-902): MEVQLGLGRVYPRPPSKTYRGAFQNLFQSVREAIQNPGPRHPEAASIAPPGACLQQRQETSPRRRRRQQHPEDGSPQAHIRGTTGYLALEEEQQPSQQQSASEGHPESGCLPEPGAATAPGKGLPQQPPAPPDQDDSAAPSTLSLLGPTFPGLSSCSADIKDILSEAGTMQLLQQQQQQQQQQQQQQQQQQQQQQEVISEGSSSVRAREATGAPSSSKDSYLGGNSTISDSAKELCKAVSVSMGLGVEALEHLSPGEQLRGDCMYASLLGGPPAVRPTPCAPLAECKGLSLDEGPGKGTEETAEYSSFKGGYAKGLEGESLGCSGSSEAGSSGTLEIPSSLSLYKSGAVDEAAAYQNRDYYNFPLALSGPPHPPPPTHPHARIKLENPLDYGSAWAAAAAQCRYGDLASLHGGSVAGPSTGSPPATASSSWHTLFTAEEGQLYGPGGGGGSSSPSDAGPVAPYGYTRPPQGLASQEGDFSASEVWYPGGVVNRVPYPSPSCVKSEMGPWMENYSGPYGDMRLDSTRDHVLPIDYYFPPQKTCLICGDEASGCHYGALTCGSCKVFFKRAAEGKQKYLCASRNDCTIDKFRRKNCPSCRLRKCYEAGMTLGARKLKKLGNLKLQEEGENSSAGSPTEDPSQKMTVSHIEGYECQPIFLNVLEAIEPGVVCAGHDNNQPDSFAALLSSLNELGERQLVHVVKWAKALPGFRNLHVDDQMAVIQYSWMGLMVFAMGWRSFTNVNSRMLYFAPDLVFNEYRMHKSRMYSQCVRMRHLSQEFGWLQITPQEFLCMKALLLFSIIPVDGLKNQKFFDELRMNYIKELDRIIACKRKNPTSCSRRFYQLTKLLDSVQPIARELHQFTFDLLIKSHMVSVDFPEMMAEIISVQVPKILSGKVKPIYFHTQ
From the text: Biol. Med., 83, 175 (1953); B. L. Beyler et al, “Methods for evaluating anabolic and catabolic agents in laboratory animals”, J. Amer. Med. Women's Ass., 23, 708 (1968); H. Fukuda et al., “Investigations of the levator ani muscle as an anabolic steroid assay”, Nago Dai. Yak. Ken. Nem. 14, 84 (1966) the disclosures of which are herein incorporated by reference.
The basis of this assay lies in the well-defined action of androgenic agents on the maintenance and growth of muscle tissues and sexual accessory organs in animals and man. […] J. Anat. […] Ital. Biol. Sper. […] II. […] Ital. Biol. Sper. 42, 1600 (1966); A. Boris et al., Steroids 15, 61 (1970). As described above, the effects of androgens on maintenance of male sexual accessory organs, such as the prostate and seminal vesicles, is well described. Castration results in rapid involution and atrophy of the prostate and seminal vesicles. This effect can be reversed by exogenous addition of androgens. Since both the levator ani muscle and the male sex organs are the tissues most responsive to the effects of androgenic agents, this model is used to determine the androgen dependent reversal of atrophy in the levator ani muscle and the sex accessory organs in immature castrated rats. Sexually mature rats (200-250 g, 6-8 weeks-old, Sprague-Dawley, Harlan) were acquired castrated from the vendor […]. […]

Experiment [2] concerns the target glucocorticoid receptor (Homo sapiens, UniProt P04150). In words: cell-based. Particulars: A549, read-out: % inhibition of the reporter system as compared to the buffer control with 10 ng/mL PMA alone. As for the experimental part:
The AP-1 assay is a cell-based luciferase reporter assay. A549 cells, which contain endogenous glucocorticoid receptor, were stably transfected with an AP-1 DNA binding site attached to the luciferase gene. Cells are then grown in RPMI+10% fetal calf serum (charcoal-treated)+Penicillin/Streptomycin with 0.5 mg/mL geneticin. Cells are plated the day before the assay at approximately 40000 cells/well. On assay day, the media is removed by aspiration and 20 μL assay buffer (RPMI without phenol red+10% FCS (charcoal-treated)+Pen/Strep) is added to each well. At this point either 20 μL assay buffer (control experiments), the compounds of the present invention (“test compounds”) (dissolved in DMSO and added at varying concentrations) or dexamethasome (100 nM in DMSO, positive control) are added to each well. The plates are then pre-incubated for 15 min at 37° C., followed by stimulation of the cells with 10 ng/mL PMA. The plates are then incubated for 7 h at 37° C. after which 40 μL luciferase substrate reagent is added to each well. Activity is measured by analysis in a luminometer as compared to control experiments treated with buffer or dexamethasome.

The subject of experiment [3] is wild type AR (MDA 453 cells). Particulars: read-out: Kd for [3H]-DHT, Scatchard analysis, 4 h at 37° C. As for the experimental part: For the whole-cell binding assay, human LNCaP cells (T877A mutant AR) or MDA 453 (wild type AR) in 96-well microtiter plates containing RPMI 1640 or DMEM supplemented with 10% charcoal stripped CA-FBS (Cocaleco Biologicals) respectively, were incubated at 37° C. to remove any endogenous ligand that might be complexed with the receptor in the cells.
For the saturation analysis, the difference between the total binding and the non-specific binding, was defined as specific binding. […] See e.g. D. Rodbard, Mathematics and statistics of ligand assays: an illustrated guide: In: J. Langon and J. J. Clapp, eds., Ligand Assay, Masson Publishing U.S.A., Inc., New York, pp. 45-99, (1981), the disclosure of which is herein incorporated by reference.
Two replicates were used for each sample. […] After correcting for non-specific binding, IC50 values were determined. […] C2C12 Mouse Myoblast Transactivation Assay

glucocorticoid receptor, sequence (P04150 whole entry): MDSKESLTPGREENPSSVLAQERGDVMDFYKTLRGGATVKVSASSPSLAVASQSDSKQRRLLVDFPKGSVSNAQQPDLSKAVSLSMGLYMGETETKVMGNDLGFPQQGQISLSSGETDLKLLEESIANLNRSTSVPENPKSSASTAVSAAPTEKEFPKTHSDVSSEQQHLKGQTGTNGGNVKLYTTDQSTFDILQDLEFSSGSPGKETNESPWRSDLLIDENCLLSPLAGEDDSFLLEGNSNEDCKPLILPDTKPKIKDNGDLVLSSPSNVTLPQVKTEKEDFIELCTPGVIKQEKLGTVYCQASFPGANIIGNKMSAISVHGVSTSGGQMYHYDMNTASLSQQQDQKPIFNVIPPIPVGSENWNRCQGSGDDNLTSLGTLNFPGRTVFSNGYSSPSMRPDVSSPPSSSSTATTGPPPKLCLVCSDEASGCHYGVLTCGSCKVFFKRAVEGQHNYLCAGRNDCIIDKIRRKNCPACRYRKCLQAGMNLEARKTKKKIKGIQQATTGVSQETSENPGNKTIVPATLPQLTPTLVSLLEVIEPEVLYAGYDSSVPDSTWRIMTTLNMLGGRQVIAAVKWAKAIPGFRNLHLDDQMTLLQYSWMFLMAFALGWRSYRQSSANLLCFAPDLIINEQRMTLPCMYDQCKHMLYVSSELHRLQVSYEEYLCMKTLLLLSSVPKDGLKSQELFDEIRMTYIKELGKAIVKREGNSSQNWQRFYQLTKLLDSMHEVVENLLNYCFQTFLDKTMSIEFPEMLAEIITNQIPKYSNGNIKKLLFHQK

As for `CCC(=O)O[C@H]1CC[C@H]2[C@@H]3CCC4=CC(=O)CC[C@]4(C)[C@H]3CC[C@]12C` [TP, testosterone propionate], in experiment [1] (castrated rats, organ weight), the “EC50 (increase in organ weight)” value is listed as about 0.03 mg. The “potency relative to free T” value in experiment [1] (higher potency than free T) is given as 10-30 fold. Take `C[C@@H]1C[C@H]2[C@@H]3CCC4=CC(=O)C=C[C@]4(C)[C@@]3(F)[C@@H](O)C[C@]2(C)[C@@]1(O)C(=O)CO` [dexamethasone]: in experiment [2], the inhibition at 10 µM came to 65%. What is called Kd is a measure of binding affinity in units of concentration. With “tritiated dihydrotestosterone [[^3H]-DHT]”, in experiment [3], the Kd stood at 0.7 nM.

The record behind these values is patent publication US20050182105A1 (priority 2004, published 2005).
